Measured values as given in the supplement of paper PMC10307832.

Tests used:
Test in all cases: relative viability (nuclei count vs DMSO), 5 days (fraction); higher = more cells survive
[1] = compound: CC(O)(CS(=O)(=O)c1ccc(F)cc1)C(=O)Nc1ccc(C#N)c(C(F)(F)F)c1 [Bicalutamide] + CCNC(=O)c1noc(-c2cc(C(C)C)c(O)cc2O)c1-c1ccc(CN2CCOCC2)cc1 [Luminespib] (partner 0.01 µM)
In short: (§1)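 Nuclei were stained with Hoechst during a one-step fixation (final 0.05% Triton X-100, 1% formaldehyde, 1 ug/ml Hoechst) carried out 5 days after dosing, then counted on 4× images. The cells, lung cancer lines in 1536-well plates, had been dosed by pin tool the day after seeding with one drug alone or a fixed anchor-drug dose plus five library-drug doses (not always all listed) in √10 steps. Relative viability is the nuclei count in treated wells divided by that in vehicle wells, and each value is the median of duplicate plates.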

[2] = compound: C(C(=O)C(=O)O)Br [Bromopyruvate] + Nc1ncn([C@H]2C[C@H](O)[C@@H](CO)O2)c(=O)n1 [Decitabine] (partner 2 µM)
In short: as §1

[3] = compound: C(C(=O)C(=O)O)Br [Bromopyruvate] + CC(C)C[C@H](NC(=O)[C@H](Cc1ccccc1)NC(=O)c1cnccn1)B(O)O [Bortezomib] (partner 0.002 µM)
In short: as §1

[4] = compound: CC(O)(CS(=O)(=O)c1ccc(F)cc1)C(=O)Nc1ccc(C#N)c(C(F)(F)F)c1 [Bicalutamide] + Cc1nc(Nc2ncc(C(=O)Nc3c(C)cccc3Cl)s2)cc(N2CCN(CCO)CC2)n1 [Dasatinib] (partner 0.075 µM)
In short: as §1

Cell Line: HCC-44
- relative viability ([1]; first compound 0.08 µM): 0.907
- relative viability ([1]; first compound 0.253 µM): 0.97
- relative viability ([1]; first compound 0.8 µM): 1.44
- relative viability ([1]; first compound 2.53 µM): 1.15
- relative viability ([2]; first compound 1 µM): 0.987
- relative viability ([2]; first compound 3.162 µM): 0.926
- relative viability ([2]; first compound 10 µM): 0.895
- relative viability ([2]; first compound 31.62 µM): 0.943
- relative viability ([2]; first compound 100 µM): 0.908
- relative viability ([3]; first compound 1 µM): 0.914
- relative viability ([3]; first compound 3.162 µM): 0.897
- relative viability ([3]; first compound 10 µM): 0.872
- relative viability ([3]; first compound 31.62 µM): 0.918
- relative viability ([3]; first compound 100 µM): 0.962

Cell Line: HCC-78
- relative viability ([4]; first compound 0.08 µM): 0.363
- relative viability ([4]; first compound 0.253 µM): 0.297
- relative viability ([4]; first compound 0.8 µM): 0.483
- relative viability ([4]; first compound 2.53 µM): 0.375
- relative viability ([2]; first compound 1 µM): 0.644
- relative viability ([2]; first compound 3.162 µM): 0.708
- relative viability ([2]; first compound 10 µM): 0.723
- relative viability ([2]; first compound 31.62 µM): 0.63
- relative viability ([2]; first compound 100 µM): 0.655
- relative viability ([3]; first compound 1 µM): 0.282
- relative viability ([3]; first compound 3.162 µM): 0.615
- relative viability ([3]; first compound 10 µM): 0.569
- relative viability ([3]; first compound 31.62 µM): 0.563
- relative viability ([3]; first compound 100 µM): 0.495

Cell Line: HCC-366
- relative viability ([4]; first compound 0.08 µM): 0.556
- relative viability ([4]; first compound 0.253 µM): 0.481
- relative viability ([4]; first compound 0.8 µM): 0.749
- relative viability ([4]; first compound 2.53 µM): 0.5
- relative viability ([2]; first compound 1 µM): 0.358
- relative viability ([2]; first compound 3.162 µM): 0.302
- relative viability ([2]; first compound 10 µM): 0.43
- relative viability ([2]; first compound 31.62 µM): 0.348
- relative viability ([2]; first compound 100 µM): 0.351
- relative viability ([3]; first compound 1 µM): 1.04
- relative viability ([3]; first compound 3.162 µM): 1.06
- relative viability ([3]; first compound 10 µM): 1.38
- relative viability ([3]; first compound 31.62 µM): 1.09
- relative viability ([3]; first compound 100 µM): 1.18

Cell Line: HCC-827
- relative viability ([4]; first compound 0.08 µM): 0.328
- relative viability ([4]; first compound 0.253 µM): 0.19
- relative viability ([4]; first compound 0.8 µM): 0.315
- relative viability ([4]; first compound 2.53 µM): 0.293
- relative viability ([1]; first compound 0.08 µM): 0.704
- relative viability ([1]; first compound 0.253 µM): 0.676
- relative viability ([1]; first compound 0.8 µM): 1.35
- relative viability ([1]; first compound 2.53 µM): 0.668
- relative viability ([2]; first compound 1 µM): 0.356
- relative viability ([2]; first compound 3.162 µM): 0.295
- relative viability ([2]; first compound 10 µM): 0.305
- relative viability ([2]; first compound 31.62 µM): 0.331
- relative viability ([2]; first compound 100 µM): 0.266
- relative viability ([3]; first compound 1 µM): 1.05
- relative viability ([3]; first compound 3.162 µM): 1.07
- relative viability ([3]; first compound 10 µM): 1.03
- relative viability ([3]; first compound 31.62 µM): 1.08
- relative viability ([3]; first compound 100 µM): 1.05

Cell Line: HOP-62
- relative viability ([4]; first compound 0.08 µM): 0.663
- relative viability ([4]; first compound 0.253 µM): 0.646
- relative viability ([4]; first compound 0.8 µM): 0.815
- relative viability ([4]; first compound 2.53 µM): 0.516
- relative viability ([1]; first compound 0.08 µM): 0.917
- relative viability ([1]; first compound 0.253 µM): 1.01
- relative viability ([1]; first compound 0.8 µM): 1.09
- relative viability ([1]; first compound 2.53 µM): 0.885
- relative viability ([2]; first compound 1 µM): 0.217
- relative viability ([2]; first compound 3.162 µM): 0.229
- relative viability ([2]; first compound 10 µM): 0.186
- relative viability ([2]; first compound 31.62 µM): 0.211
- relative viability ([2]; first compound 100 µM): 0.138
- relative viability ([3]; first compound 1 µM): 0.739
- relative viability ([3]; first compound 3.162 µM): 0.832
- relative viability ([3]; first compound 31.62 µM): 0.547
- relative viability ([3]; first compound 100 µM): 0.628

Cell Line: IA-LM
- relative viability ([3]; first compound 1 µM): 0.872
- relative viability ([3]; first compound 3.162 µM): 0.835
- relative viability ([3]; first compound 10 µM): 0.908
- relative viability ([3]; first compound 31.62 µM): 0.835
- relative viability ([3]; first compound 100 µM): 0.64

Cell Line: LK-2
- relative viability ([4]; first compound 0.08 µM): 0.283
- relative viability ([4]; first compound 0.253 µM): 0.224
- relative viability ([4]; first compound 0.8 µM): 0.261
- relative viability ([4]; first compound 2.53 µM): 0.293
- relative viability ([1]; first compound 0.08 µM): 0.161
- relative viability ([1]; first compound 0.253 µM): 0.167
- relative viability ([1]; first compound 0.8 µM): 0.175
- relative viability ([1]; first compound 2.53 µM): 0.21
- relative viability ([2]; first compound 1 µM): 0.277
- relative viability ([2]; first compound 3.162 µM): 0.232
- relative viability ([2]; first compound 10 µM): 0.287
- relative viability ([2]; first compound 31.62 µM): 0.325
- relative viability ([2]; first compound 100 µM): 0.272

Cell Line: NCI-H358
- relative viability ([4]; first compound 0.08 µM): 0.154
- relative viability ([4]; first compound 0.253 µM): 0.14
- relative viability ([4]; first compound 0.8 µM): 0.16
- relative viability ([4]; first compound 2.53 µM): 0.145
- relative viability ([1]; first compound 0.08 µM): 0.488
- relative viability ([1]; first compound 0.253 µM): 0.295
- relative viability ([1]; first compound 0.8 µM): 0.582
- relative viability ([1]; first compound 2.53 µM): 0.32
- relative viability ([2]; first compound 1 µM): 0.2
- relative viability ([2]; first compound 3.162 µM): 0.21
- relative viability ([2]; first compound 10 µM): 0.223
- relative viability ([2]; first compound 31.62 µM): 0.247
- relative viability ([2]; first compound 100 µM): 0.238

Cell Line: NCI-H522
- relative viability ([4]; first compound 0.08 µM): 0.815
- relative viability ([4]; first compound 0.253 µM): 0.722
- relative viability ([4]; first compound 0.8 µM): 0.901
- relative viability ([4]; first compound 2.53 µM): 0.87
- relative viability ([1]; first compound 0.08 µM): 1.07
- relative viability ([1]; first compound 0.253 µM): 1.14
- relative viability ([1]; first compound 0.8 µM): 1.45
- relative viability ([1]; first compound 2.53 µM): 1.17
- relative viability ([2]; first compound 1 µM): 0.604
- relative viability ([2]; first compound 3.162 µM): 0.705
- relative viability ([2]; first compound 10 µM): 0.619
- relative viability ([2]; first compound 31.62 µM): 0.699
- relative viability ([2]; first compound 100 µM): 0.603

Cell Line: NCI-H1299
- relative viability ([3]; first compound 1 µM): 0.973
- relative viability ([3]; first compound 3.162 µM): 1.02
- relative viability ([3]; first compound 10 µM): 1.06
- relative viability ([3]; first compound 31.62 µM): 0.956
- relative viability ([3]; first compound 100 µM): 1
